The values that follow come from US11607422B2, “Uttroside B and derivatives thereof as therapeutics for hepatocellular carcinoma” (Rajiv Gandhi Centre for Biotechnology, an Autonomous …, priority 2016, dated 2023).

By IC50 is commonly meant the concentration at which inhibition is half-maximal.

Read-outs that look alike come from different tables or passages of the source.

Data set [1] has as its system A549. In words: MTT cell viability assay in A549 cells. In kind it is cell-based. The following applies: 72 h. How it is done: (§1) FIG. 2A is a graph comparison of IC50 of Uttroside B in a panel of cancer cells of different origin. The cancer cell lines HeLa, A375, HepG2, MDA-MB-231, HL 60, A549 and HCT116 were treated with Uttroside B as indicated, incubated for 72 h and the cell viability was assessed by MTT assay. FIG. 2B is a graph showing dose dependent effect of Uttroside B in the liver cancer cell lines and in normal immortalized hepatocytes. The liver cancer cell lines HepG2, Hep3B, SKHEP-1, Huh-7 and normal hepatocytes (Chang liver), were treated with Uttroside B incubated for 72 h and the cell viability was assessed by MTT assay. FIG. 2C is a graph comparison of IC50 of Uttroside B with sorafenib. HepG2 cells were treated with Uttroside B as indicated, incubated for 72 h, and the cell viability was assessed by MTT assay. […] The clones developed were counted and plotted as a graph. Colony containing more than four cells was counted as one clone. […]
(§2) MTT [3-(4,5-dimethylthiazole-2-yl)-2,5-diphenyltetrazolium bromide] assay is a standard colorimetric assay, suitable for analyzing proliferation, viability, and cytotoxicity. […] After overnight incubation, cells were treated with different concentrations of organic extracts (25-250 μg/ml) of S. nigrum and the isolated compound Uttroside B (250-1250 nM) for 72 h and cytotoxicity was measured. […]
A general note: Formazan colour is commonly taken as a measure of viable cells.

Data set [2] relates to MDA-MB-231. In words: MTT cell viability assay in MDA-MB-231 cells. The conditions noted are these: 72 h. It counts as cell-based. How it is done:
as §1, §2

For data set [3], the system named is HCT-116. In words: MTT cell viability assay in HCT-116 cells. The following applies: 72 h. It counts as cell-based. The method, then:
as §1
MTT [3-(4,5-dimethylthiazole-2-yl)-2,5-diphenyltetrazolium bromide] assay is a standard colorimetric assay, suitable for analyzing proliferation, viability, and cytotoxicity. […] At the end of incubation, the optical density was measured at 570 nm using ELISA plate reader (Bio-Rad). The relative cell viability in percentage was calculated as (A570 of treated samples/A570 of untreated samples)×100. […]

For data set [4], the system named is AP-1 in HepG2 cells. In words: Electrophoretic mobility shift assay of AP-1. It counts as cell-based, human. The following applies: HepG2, EMSA. The method, then:
Stocks of crude extracts and isolated compound of S. nigrum was prepared in DMSO for the in vitro studies and stored at −20° C. The DMSO concentration in all studies, including controls, was ≤0.2%. Cell viability assay was performed after 72 h of drug treatment while whole cell lysate preparation and cell cycle analysis were done after 24 h and 48 h of drug treatment. For studying NF-κB and AP-1, Uttroside B was incubated for 2 h before extraction.
Radiolabeling of oligonucleotide probes for electrophoretic mobility shift assay:HepG2 Cells were treated with Uttroside B for two hours, scraped and suspended in 150 μL of lysis buffer (10 mM HEPES(pH 7.9), 10 mM KCl, 0.1 mM EDTA, 0.1 mM EGTA, 1 mM DTT, 0.5 mMphenylmethylsulfonyl fluoride, 2 μg/mL leupeptin, 2 μg/mL aprotinin, 0.5 mg/ml benzamidine) for 30 min, after which 4.5 μl of 10% Nonidet P-40 was added. […]
A general note: Mobility shift assays separate free from complexed probe on a gel.

For data set [5], the system named is HCT-116. The conditions noted are these: literature ref 13; read-out: IC50, cytotoxicity against HCT-116 (colon cancer cells); cited from earlier work.
Data set [6] relates to HeLa cells. The following applies: literature ref 12; read-out: IC50, cytotoxicity against HeLa (cervical cancer cells); cited from earlier work.

In the case of `C[C@H](CC[C@@]1(O)O[C@H]2C[C@H]3[C@@H]4CC[C@H]5C[C@@H](O[C@@H]6O[C@H](CO)[C@H](O[C@@H]7O[C@H](CO)[C@@H](O)[C@H](O[C@@H]8OC[C@@H](O)[C@H](O)[C@H]8O)[C@H]7O[C@@H]7O[C@H](CO)[C@@H](O)[C@H](O)[C@H]7O)[C@H](O)[C@H]6O)CC[C@]5(C)[C@H]4CC[C@]3(C)[C@H]2[C@@H]1C)CO[C@@H]1O[C@H](CO)[C@@H](O)[C@H](O)[C@H]1O` [Uttroside B], the IC50 in data set [1] is 1000 nM; in data set [2] it was 1600 nM; in data set [3] it was 6000 nM; in data set [5], 2330 nM; in data set [6], 15400 nM. Besides, the “AP-1 (downstream target of MAPK signaling)” value in data set [4] is recorded as “down-regulated”.
